Broadly, the EC50 is the concentration giving half of the maximal effect. As usually defined, the melting point is the temperature of the solid-liquid transition.

The values below come from patent publication US10584115B2, “Substituted pyridine and pyrazine BMI-1 inhibitors” (PTC Therapeutics, Inc., priority 2013, dated 2020).

Data set [1] has as its system Bmi-1 protein. Briefly: Sandwich ELISA Assay (Bmi-1 protein level in HT-1080 cells after compound treatment). The data set is classed as cell-based. Summed up: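 Sandwich ELISA quantified Bmi-1 protein against recombinant standard (125–8000 pg/mL), with lysates captured overnight at 4 °C and signal by HRP/TMB at 450 nm (570 nm reference). Lysates came from HT-1080 cells incubated 40–48 h with test compounds in 0.5% DMSO.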

Setting [2] is: Table 1, Bmi-1 sandwich ELISA, read-out: ELISA EC50 value for Bmi-1 protein.
Setting [3] is: read-out: ELISA EC50 value for Bmi-1 protein, Table 1, Bmi-1 sandwich ELISA.

Each structure is given as a SMILES string. Where two headings read alike, the source gives them in different places. Bounds are passed on as bounds.

`Cc1nn(CCO)c(C)c1-c1cncc(Nc2ccc(C(F)(F)F)cc2)n1` [compound 335, 2-[3,5-dimethyl-4-(6-{[4-(trifluoromethyl)phenyl]amino}pyrazin-2-yl)-1H-pyrazol-1-yl]ethanol]: the melting point lay in the range of 172 to 174 °C. Further, the EC50 in data set [1] (setting [2]) fell in the range of 1 to 10 nM.

Consider `Cc1cc(Nc2cc(C#N)cc(-c3c(C)nc4ccc(F)cn34)n2)cnc1OC(F)F` [compound 470, 2-{[6-(difluoromethoxy)-5-methylpyridin-3-yl]amino}-6-(6-fluoro-2-methylimidazo[1,2-a]pyridin-3-yl)pyridine-4-carbonitrile], for which the melting point fell in the range of 219 to 222 °C. The EC50 in data set [1] (setting [2]) was in the range of 100 to 3000 nM.

The compound `Cc1nc2ccc(F)cn2c1-c1cncc(Nc2ccc(C(F)(F)F)cc2)n1` [compound 244, 6-(6-fluoro-2-methylimidazo[1,2-a]pyridin-3-yl)-N-[4-(trifluoromethyl)phenyl]pyrazin-2-amine] yielded a melting point of 160 to 162 °C. Besides, in data set [1] (setting [2]), the EC50 lay in the range of 1 to 10 nM.

Turning to `COc1ccc(Nc2cncc(-c3c(C)noc3C)n2)cc1` [compound 636, 6-(3,5-dimethyl-1,2-oxazol-4-yl)-N-(4-methoxyphenyl)pyrazin-2-amine], the melting point lay in the range of 154 to 155 °C. Also, the EC50 in data set [1] (setting [2]) was 10 to 100 nM.

`FC(F)(F)c1nc2ccccn2c1-c1cncc(Nc2ccc(C3CC3)cc2)n1` [compound 165, N-(4-cyclopropylphenyl)-6-[2-(trifluoromethyl)imidazo[1,2-a]pyridin-3-yl]pyrazin-2-amine]: the melting point lay in the range of 317 to 320 °C. Besides, in data set [1] (setting [2]), the EC50 fell in the range of 1 to 10 nM.

Consider `Cc1nc2ccc(F)cn2c1-c1cncc(Nc2ccc(OC(F)(F)F)cc2)n1` [compound 246, 6-(6-fluoro-2-methylimidazo[1,2-a]pyridin-3-yl)-N-[4-(trifluoromethoxy)phenyl]pyrazin-2-amine], for which the melting point lay within 163 to 165 °C. For the same compound, the EC50 in data set [1] (setting [2]) fell in the range of 1 to 10 nM.

On to `Cc1noc(C)c1-c1cncc(Nc2ccc(C(F)(F)F)cc2)n1` [compound 127, 6-(3,5-dimethyl-1,2-oxazol-4-yl)-N-[4-(trifluoromethyl)phenyl]pyrazin-2-amine], for which the melting point was in the range of 208 to 210 °C. Moreover, the EC50 in data set [1] (setting [3]) fell in the range of 10 to 100 nM.

With `Fc1cc(Nc2cncc(-n3c(C(F)F)nc4ccccc43)n2)ccc1OC(F)F` [compound 483, N-[4-(difluoromethoxy)-3-fluorophenyl]-6-[2-(difluoromethyl)-1H-benzimidazol-1-yl]pyrazin-2-amine], the melting point fell in the range of 220 to 222 °C. Besides, the EC50 in data set [1] (setting [2]) was 10 to 100 nM.

As for `N#Cc1cc(Nc2ccc(C(F)(F)F)nc2)nc(-c2c(C(F)F)nc3ccc(F)cn23)c1` [compound 469, 2-[2-(difluoromethyl)-6-fluoroimidazo[1,2-a]pyridin-3-yl]-6-{[6-(trifluoromethyl)pyridin-3-yl]amino}pyridine-4-carbonitrile], the melting point lay within 285 to 288 °C. Also, the EC50 in data set [1] (setting [2]) is 10 to 100 nM.

In the case of `Fc1cc(F)c2nc(C3CC3)n(-c3cncc(Nc4ccc(C(F)(F)F)nc4)n3)c2c1` [compound 464, 6-(2-cyclopropyl-4,6-difluoro-1H-benzimidazol-1-yl)-N-[6-(trifluoromethyl)pyridin-3-yl]pyrazin-2-amine], the melting point lay in the range of 267 to 270 °C. Further, the EC50 in data set [1] (setting [2]) lay within 10 to 100 nM.

`Cc1noc(C)c1-c1cncc(Nc2ccc3c(c2)OCO3)n1` [compound 639, N-(1,3-benzodioxol-5-yl)-6-(3,5-dimethyl-1,2-oxazol-4-yl)pyrazin-2-amine] had a melting point of 185 to 186 °C. In addition, in data set [1] (setting [2]), the EC50 fell in the range of 100 to 3000 nM.

Take `Cc1nc2c(F)cc(F)cn2c1-c1cc(C#N)cc(Nc2ccc(OC(F)(F)F)cc2)n1` [compound 443, 2-(6,8-difluoro-2-methylimidazo[1,2-a]pyridin-3-yl)-6-{[4-(trifluoromethoxy)phenyl]amino}pyridine-4-carbonitrile]: the melting point is 213 to 216 °C. For the same compound, the EC50 in data set [1] (setting [2]) lay within 10 to 100 nM.

Regarding `Cc1nc2ccc(F)cn2c1-c1cncc(Nc2cccc(F)c2)n1` [compound 595, 6-(6-fluoro-2-methylimidazo[1,2-a]pyridin-3-yl)-N-(3-fluorophenyl)pyrazin-2-amine], the melting point lay within 270 to 273 °C. In addition, the EC50 in data set [1] (setting [2]) lay in the range of 10 to 100 nM.

The compound `Cc1cn2c(-c3cncc(Nc4ccc(C(F)(F)F)cc4)n3)c(C)nc2c(C)n1` [compound 488, N-[4-(trifluoromethyl)phenyl]-6-(2,6,8-trimethylimidazo-[1,2-a]pyrazin-3-yl)pyrazin2-amine] came in with a melting point of 102 to 105 °C. The EC50 in data set [1] (setting [2]) was in the range of 10 to 100 nM.

Take `Fc1cc(F)c2nc(C3CC3)n(-c3cncc(Nc4ccc(C(F)(F)F)cc4)n3)c2c1` [compound 461, 6-(2-cyclopropyl-4,6-difluoro-1H-benzimidazol-1-yl)-N-[4-(trifluoromethyl)phenyl]pyrazin-2-amine]: the melting point fell in the range of 247 to 249 °C. The EC50 in data set [1] (setting [3]) fell in the range of 10 to 100 nM.

For `Cc1nc2cc(F)ccc2n1-c1cncc(Nc2ccc(C(F)(F)F)cc2)n1` [compound 204, 6-(5-fluoro-2-methyl-1H-benzimidazol-1-yl)-N-[4-(trifluoromethyl)phenyl]pyrazin-2-amine], the melting point was in the range of 272 to 275 °C. In addition, in data set [1] (setting [2]), the EC50 is 10 to 100 nM.

Compound `Cc1nc2ccc(F)cc2n1-c1cncc(Nc2ccc(OC(F)F)c(F)c2)n1` [compound 320, N-[4-(difluoromethoxy)-3-fluorophenyl]-6-(6-fluoro-2-methyl-1H-benzimidazol-1-yl)pyrazin-2-amine] gave a melting point of 230 to 231 °C. In data set [1] (setting [2]), the EC50 fell in the range of 10 to 100 nM.

In the case of `N#Cc1cc(Nc2ccc(C(F)(F)F)cc2)nc(-n2c(C3CC3)nc3c(F)cc(F)cc32)c1` [compound 474, 2-(2-cyclopropyl-4,6-difluoro-1H-benzimidazol-1-yl)-6-{[4-(trifluoromethyl)phenyl]amino}pyridine-4-carbonitrile], the melting point lay within 233 to 235 °C. The EC50 in data set [1] (setting [2]) was 10 to 100 nM.

Compound `COc1ccc(Nc2cncc(-c3c(C)noc3C)n2)cc1F` [compound 637, 6-(3,5-dimethyl-1,2-oxazol-4-yl)-N-(3-fluoro-4-methoxyphenyl)pyrazin-2-amine] showed a melting point of 158 to 159 °C. In addition, the EC50 in data set [1] (setting [2]) lay within 10 to 100 nM.

Regarding `CCc1nc2ccc(F)cc2n1-c1cncc(Nc2ccc(Cl)cc2)n1` [compound 623, N-(4-chlorophenyl)-6-(2-ethyl-6-fluoro-1H-benzimidazol-1-yl)pyrazin-2-amine], the melting point fell in the range of 252 to 255 °C. In data set [1] (setting [2]), the EC50 was in the range of 1 to 10 nM.

In the case of `CCS(=O)(=O)n1nc(C)c(-c2cncc(Nc3ccc(C(F)(F)F)cc3)n2)c1C` [compound 176, 6-[1-(ethylsulfonyl)-3,5-dimethyl-1H-pyrazol-4-yl]-N-[4-(trifluoromethyl)phenyl]pyrazin-2-amine], the melting point lay within 70 to 71 °C. The EC50 in data set [1] (setting [2]) is 10 to 100 nM.

The compound `CCc1nc2ccc(F)cc2n1-c1cncc(Nc2ccc(OC)cc2)n1` [compound 621, 6-(2-ethyl-6-fluoro-1H-benzimidazol-1-yl)-N-(4-methoxyphenyl)pyrazin-2-amine] registered a melting point of 218 to 220 °C. For the same compound, in data set [1] (setting [2]), the EC50 was < 1 nM.
